Data: EPA's ToxValDB 9.5 (doi:10.2903/j.efsa.2018.5465)
In brackets after ≈: the same amount, converted by molar mass.

Tests used:
Typhlodromus pyri = assay: LR50; higher = less toxic; conditions: acute; mortality
Oncorhynchus mykiss = conditions: acute; duration: 96 hours; mortality
Canidae = conditions: chronic; duration: 1 years; Dog Other; clinical signs
Tagia sp. = conditions: chronic/long-term; duration: 56 days
Colinus virginianus = conditions: reproduction developmental
Folsomia candida = conditions: chronic/long-term; duration: 28 days
Coturnix japonica = conditions: acute; oral; mortality
Apis mellifera = conditions: acute, mortality
Daphnia magna = conditions: chronic/long-term; duration: 21 days

CCN(CC)C(=O)[C@@H](C)Oc1cccc2ccccc12 [(R)-N,N-Diethyl-2-(1-naphthyloxy)propionamide]
LR50 (Typhlodromus pyri): > 4140 g/ha
LC50 (Oncorhynchus mykiss): 11.2 µg/mL (≈ 41.3 µM)
LD50 (Rattus norvegicus; acute, oral, mortality): > 2000 mg/kg-day
NOAEL (Rattus norvegicus; chronic, duration: 2 years, body weight): 30 mg/kg-day
NOAEL (Rattus norvegicus; subchronic, duration: 90 days, oral, hematological): 46 mg/kg-day
NOAEL (Canidae): 50 mg/kg-day
NOEC (Tagia sp.): 17.1 mg/kg
NOAEL (Colinus virginianus): 309 mg/kg-day
NOEC (Folsomia candida): 47.7 mg/kg
LD50 (Coturnix japonica): > 2000 mg/kg-day
LD50 (Apis mellifera; dermal): > 110 µg/piece
LD50 (Apis mellifera; oral, unspecified): > 110 µg/piece
NOEC (Daphnia magna): 0.1 mg/L
